# Patent US20230097658A1, “TUNABLE EXTENDED RELEASE HYDROGELS” (FRED HUTCHINSON CANCER RESEARCH CENTER, priority 2020, published 2023)
# “Also recorded” adds a separate entry of the source.
# Experiments:
# [1] = tested on: human GB line; conditions: CXCR4 blocked; cited from earlier work
# [2] = tested on: PBT-05 cells; experiment: In vitro phagocytosis assay, PBT-05 co-culture with murine bone marrow derived macrophages (BMDM); assay type: cell-based, human; conditions: for contribution to tumor cell cytotoxicity when added to CD47 blockade: murine macrophage co-cultures, compared with CD47 blockade alone; for effect on viability of tumor cells in co-culture: polarizing agent without CD47mAb
# Description: These cultures were challenged with combinations of macrophage checkpoint inhibitors (MCIs) and immune cell polarizing factors described by literature as capable of promoting an immune response against tumor cells. […] Compared to a media control, no combination of MCIs and polarizing factors caused significant cytotoxicity of PBT-05 cells cultured alone, confirming the observed cytotoxic effect is mediated by the macrophages, not the drugs themselves.
# Murine monocytes were harvested and cultured from femurs of C57BL/6 mice using RPMI (Thermofisher, 11875093) containing 10% heat deactivated FBS and 100 ng/mL mCSF1 for 7 days. Mature macrophages from these cultures were later harvested for experiments. Human monocytes were isolated from human PBMCs (Bloodworks) and purified by EasySep monocyte depletion kit (StemCell, 19355). Monocytes were cultured in RPMI containing 10% heat deactivated FBS and 25 ng/mL human CSF1 for 10 days. 50 ng/mL IL-10 was added to the cultures at day 5 to induce M2 phenotypes. Mature macrophages were later harvested for use in experiments.
# Monoclonal antibodies were purchased from Bioxcell (LEAF hCD47, BE0019) and Biolegend (LEAF hCD24mAb: 101810, MsIgG1: 400153). Phagocytosis assays were performed using the Basic Analyzer software on Essen Bio's Incucyte Zoom and Incucyte S3. 12 or 24 well plates were seeded 1:1 with GFP+ tumor lines and macrophages (murine/human) in fully supplemented Neuralcult plus various MCIs and immunomodulators described previously. Using the aforementioned definitions, the Incucyte calculated tumor cell counts based on the number of GFP+ nuclei in the wells over time.
# [3] = tested on: PBT-05 cells; experiment: In vitro chemotaxis assay (Incucyte transwell); assay type: cell-based, human; conditions: patient-derived pHGG line PBT-05
# Description: Locally delivered therapeutics in the brain may need to account for the tendency of remnant brain tumor cells to migrate away from the tumor margins—potentially out of reach locally delivered therapeutics. Here, artificial gradients of chemokines were used to lure tumor cells and phagocytic cells in the brain towards a static “trap” of macrophage-enhancing therapeutics to facilitate tumor cell elimination. Referring to FIGS. 4A-4D, to model this, a patient-derived, pediatric high grade glioma (pHGG) line, PBT-05, was used. […] In vitro chemotaxis assays were carried out with PBT-05 against a panel of classical chemokines cited in literature as potentially being potent against migratory brain tumor cells. […] Without wishing to be bound by theory, it is believed that PBT-05's attraction towards hCCL2 gradients may be mediated by another receptor promiscuous with this chemokine. While this receptor was not identified, mCCL2 may not bind to it or produce the same downstream signaling. However, its chemotactic sensitivity to human and murine CXCL12 may be mediated by the canonical pathway.
# Chemokines were purchased from: Sigma-Aldrich (CCL2: SRP3109) and RnD Systems (CXCL12: 350-NS/CF). Cell migration assays were performed using the chemotaxis module on the Incucyte Zoom 2016 and S3 (Essen Bio). Specialized 96 well transwell plates and reservoir dishes were supplied by the manufacturer (cat no's 4582, 4600). H2B-GFP+ PBT05 lines cells were cultured in the Neuralcult media+supplement without EGF/FGF to reduce background mobility caused by these growth factors. The Incucyte software was tailored to identify GFP+ nuclei to count the number of tumor cells on top and bottom of the transwell membranes.
# [4] = target: CD47 on PBT-05 patient-derived pediatric high grade glioma cells (human) (UniProt Q08722); experiment: cell-based or functional assay
# UniProt Q08722, sequence (Q08722 19-323): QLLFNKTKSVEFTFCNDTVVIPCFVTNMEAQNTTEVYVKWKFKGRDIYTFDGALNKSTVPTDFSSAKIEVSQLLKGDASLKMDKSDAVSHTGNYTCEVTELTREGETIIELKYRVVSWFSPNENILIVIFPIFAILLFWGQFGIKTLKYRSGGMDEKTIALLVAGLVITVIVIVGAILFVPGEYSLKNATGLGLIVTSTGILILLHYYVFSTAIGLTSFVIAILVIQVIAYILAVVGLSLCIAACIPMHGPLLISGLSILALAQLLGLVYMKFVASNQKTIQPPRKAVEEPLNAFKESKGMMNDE
molecule,measurement,setting,value
c1cc(CN2CCCNCCNCCCNCC2)ccc1CN1CCCNCCNCCCNCC1 [AMD3100],chemotaxis towards gradients of CXCL12,[1],reduced chemotaxis
"CCOCc1nc2c(N)nc3ccccc3c2n1CC(C)(C)O [R848, reference compound]",contribution to tumor cell cytotoxicity when added to CD47 blockade,[2],did not significantly contribute to tumor cell cytotoxicity; also recorded: did not significantly increase cytotoxicity
same,effect on viability of tumor cells in co-culture,[2],mild effects
"CCL2: classical chemokine, purchased from Sigma-Aldrich (SRP3109)",chemotaxis of PBT-05 cells (chemotactic potency),[3],induced varying degrees of chemotaxis; also recorded: varying sensitivity
"CXCL12: classical chemokine, ligand of CXCR4, purchased from RnD Systems (350-NS/CF)",chemotaxis of PBT-05 cells (chemotactic potency),[3],effective at eliciting chemotaxis; also recorded: induced varying degrees of chemotaxis; also recorded: effective at eliciting migration; also recorded: effectively chemoattract; also recorded: varying sensitivity
"LEAF hCD47 monoclonal antibody (Bioxcell, BE0019)",phagocytosis of PBT-05 cells by murine and human macrophages in co-culture (tumor cell count); antibody concentration that was effective,[4],1 µg/mL
hCCL2: human CCL2 chemokine,chemotaxis of PBT-05 cells (chemotactic potency),[3],greatest potency of the chemokines tested
mCCL2: murine version of the chemokine CCL2,chemotaxis of PBT-05 cells (chemotactic potency),[3],unresponsive
mCXCL12: murine CXCL12 chemokine,chemotaxis of PBT-05 cells (chemotactic potency),[3],lost some potency
"IFNg: polarizing agent (cytokine) that induces activated phenotypes in macrophages (protein, UniProt P01579 24-161, looked up) Interferon gamma: QDPYVKEAENLKKYFNAGHSDVADNGTLFLGILKNWKEESDRKIMQSQIVSFYFKLFKNFKDDQSIQKSVETIKEDMNVKFFNSNKKKRDDFEKLTNYSVTDLNVQRKAIHELIQVMAELSPAAKTGKRKRSQMLFRG",contribution to tumor cell cytotoxicity when added to CD47 blockade,[2],did not significantly contribute to tumor cell cytotoxicity; also recorded: did not significantly increase cytotoxicity
same,effect on viability of tumor cells in co-culture,[2],mild effects
